Experimental data from publication PMC9381536, “Non-apoptotic cell death induction via sapogenin based supramolecular particles” (Scientific Reports, 2022).
pIC50: −log10 of the molar value.

What was measured:
[1] = test system: EEA1; assay: EEA1 immunofluorescence; assay type: cell-based, Human; conditions: HCC1937, AG-08 16 h
Method: Figure 2 AG-08 is related with endosomal pathway. (A) After pre-treatment with 20 µM pitstop II, 0.5 mM methyl-β-cyclodextrin (MβC), 80 µM dynasore, 20 µM cytochalasin d (Cyto D) or 20 µM chlorpromazine (CPZ) for 1 h, HCC1937 cells were treated with 8 µM AG-08 for 24 h. Then cell viability was determined by using WST-1. Reported values were normalized on cells treated with only AG-08. Error bars are the standard deviations (n = 3). p-values were calculated with respect to AG-08 treated cells by two-tailed equal variance Student’s t-test (*p < 0.05, ***p < 0.001, ****p < 0.0001) (B) HCC1937 cells were treated with brefeldin A (Bref A) for 1 h and then treated with 8 µM AG-08 for 24 h. Error bars represent standard deviations (n = 3). p-values were calculated with respect to AG-08-treated cells (*p < 0.05, **p < 0.005, ***p < 0.001). (C) Following AG-08 treatment for 16 h, EEA1 proteins were stained using the anti-EEA1 antibody in HCC1937 cells (scale bar = 25 µm).
Cells were grown on glass coverslips and treated with AG-08. At the end of treatments, cells were washed twice with ice-cold PBS and fixed with 4% paraformaldehyde in PBS for 30 min at 4 °C. After washing 6 times with PBS, cells were permeabilized and blocked with 0.01% saponin and 0,01% BSA in PBS. […] Mounted samples were analyzed by fluorescence microscopy (Olympus IX70, Japan).

[2] = test system: CHOP; assay: CHOP expression (immunoblot, q-RTPCR); assay type: cell-based
Text: Figure 3 mRNA microarray analysis was used to identify differentially expressed genes via AG-08 treatment. (A) Heatmap representing the expressions of 193 genes with significant different expression in AG-08 treated cells compared with control. Heatmap was generated by GraphPad Prism version 8 (https://www.graphpad.com/scientific-software/prism/). (B) Protein–protein network analysis was formed via STRING. The thickness of the connecting lines indicates the strength of data support for physical and/or functional associations. (C) Pathway enrichment was determined using GO, KEGG, and Reactome pathway analysis. […] Size of circle represents the significance of enrichment. (D) The protein levels of CHOP were determined via IB. 0.5 µg/ml tunicamycin (Tun) was used as positive control. The experiments were repeated three times independently; with one representative result shown. (E) mRNA level of the CHOP was investigated using quantitative PCR (q-RTPCR). Error bars represent standard error (s.e.). p-values were calculated with respect to vehicle-treated cells by one-way Anova test. (**p < 0.005, ****p < 0.0001). (F) The expression and localization of Calnexin protein were evaluated using immunofluorescence via anti-Calnexin antibody (scale bar 25 µm).
The total RNA was isolated using Total RNA Isolation Kit (Bio-Rad, US) following the manufacturer’s instructions. cDNAs were synthesized using The iScript cDNA synthesis kit (Bio-Rad, US) according to the manufacturer’s instructions. To gene expression analysis, specific primers were designed against CHOP (forward: […], reverse: […] ). Quantitative RT-PCR (qRT-PCR) was performed using The SYBR Green I Mastermix (Bio-Rad, US) and LightCycler480 thermocycler (Roche). […] For relative quantification, reaction efficiency incorporated ΔΔCq formula was used. […]
Cell lysates were prepared by RIPA buffer (1XPBS, 1% nonidet P-40, 0.5% sodium deoxycholate, and 0.1% SDS, pH 8.0). Protein concentrations were determined by bicinchoninic acid (BCA) protein assay (Thermo Fisher Scientific, US). […]

[3] = test system: A549; set-up: method as in PMID 33136369; conditions: cited from earlier work
[4] = test system: HCC1937 cells; assay: Cell viability with Tween 20 blocking particle formation; assay type: cell-based, Human; conditions: HCC1937, 24 h
Method: Figure 1 AG-08 mediated cytotoxicity relies on the supramolecular structures. (A) Structure of AG-08. (B) The scanning transmission electron micrograph of 16 µM AG-08 in PBS. Figure is a representative image of stained sample with uranyl acetate (5683 × magnification; scale bar 600 nm). (C) After 3 h incubation of Nile red solution with AG-08 or AG, fluorescence intensity of Nile red was measured. (D) AG-08, Staurosporine (Sta) or vehicle samples prepared in the cell condition medium was filtrated by 220 nm filter and HCC1937 cells were exposed to the filtrates. After 24 h, the viability of cells was measured and represented as a percentage of that of the vehicle control. The error bars represent mean value ± s.d. (n = 3). *p < 0.05, **p < 0.005, ***p < 0.001. […] Cell viability was detected after 24 h incubation. […]
To verify that the activity of AG-08 arises from its supramolecular structures, freshly prepared AG-08 solutions were filtered using 220 nm-filters to remove AG-08 supramolecular particles from medium, and the filtrates were analyzed for their cytotoxicity. […]
Figure 5 The cytotoxic activity of analogs depends on particle formation like AG-08. […] The level of released LDH was calculated as fold change relative to vehicle. […] After 24 h, cell viability was measured. […] Cell viability after 24 h was measured. […]

Cc1ccc(S(=O)(=O)OC2CCC3(C)C4=CCC5(C)C(C6(C)CCC(C(C)(C)O)O6)C(O)CC5(C)C4C=CC3C2(C)C)cc1 (stereo not drawn) [AG-08]
EEA1 positive vesicles [1]: dramatic decrease
CHOP protein level ([2]; 8 µM): enhanced
CHOP protein level ([2]; 16 µM): decreased
CHOP (DDIT3) expression ([2]; AG-08 treated cells): upregulated in a dose-dependent manner
pIC50 [3]: 5.64
cell death in presence of Tween 20 (1:40,000) [4]: inhibited
